From patent publication US20230055705A1, “SUBSTITUTED THIOPHENE CARBOXAMIDES AND DERIVATIVES THEREOF” (Bayer Aktiengesellschaft, priority 2019, published 2023)
Read-outs that look alike come from different tables or passages of the source.

Legend:
[1] = tested on: salicylate responsive promoter sequence of the PR1 (pathogenesis-related protein I) gene (AT2G14610); test: Induction of defense gene expression in Arabidopsis thaliana (PR1 promoter-GFP reporter plants); type: in vivo; conditions: Arabidopsis thaliana, 72 h, 3rd day after spraying, mock treated leaves set as 1.00, read-out: relative fluorescence value; for fold induction at 75 ppm: 75 ppm of compound
Method: Arabidopsis thaliana reporter plants containing the coding sequence of a green fluorescent protein (GFP) linked to the salicylate responsive promoter sequence of the PR1 (pathogenesis-related protein I) gene (AT2G14610) were grown for five days and then sprayed with compounds. On the 3rd day after spraying, plant fluorescence was assessed with a MacroFluo instrument from Leica Microsystems (Wetzlar, Germany). Fluorescences were quantified with the Meta-Morph Microscopy Automation & Image Analysis Software (Molecular Devices, Sunnyvale, Calif., United States). Background fluorescence in mock treated leaves was set as 1.00.

[2] = tested on: Xanthomonas campestris pv. campestris; test: Xanthomonas campestris pv. campestris in vitro cell test; type: cell-based; conditions: read-out: efficacy (inhibition of bacteria growth)
Method: • Solvent: DMSO • Culture medium: LB broth medium (Luria Broth Miller) Sigma • Inoculum: bacteria suspension
Compounds were solubilized in DMSO and the solution used to prepare the required range of concentrations. The final concentration of DMSO used in the assay was ≤1%.
(§1) Inoculum was prepared from a pre-culture of bacteria grown in liquid medium and diluted to the desired optical density (OD).
(§2) Compounds were evaluated for their ability to inhibit bacteria growth in liquid culture assay. The compounds were added in the desired concentrations to culture medium containing the bacteria suspension. After 24 h of incubation, the efficacy of compounds was determined by spectrometric measurement of bacteria growth. Inhibition was determined by comparing the absorbance values in wells containing the compounds with the absorbance in control wells without active ingredients.

[3] = tested on: Pseudomonas syringae pv. tomato; test: Pseudomonas syringae pv. tomato in vitro cell test; type: cell-based; conditions: 20 ppm of active ingredient, 24 h incubation, read-out: efficacy (inhibition of bacteria growth)
Method: Culture medium: LB broth medium (Luria Broth Miller) Sigma
Inoculum: bacteria suspension
Compounds were solubilized in DMSO and the solution used to prepare the required range of concentrations. The final concentration of DMSO used in the assay was 1%.
as §1, §2

[4] = tested on: Colletotrichum lindemuthianum; test: In vivo preventive test on Colletotrichum lindemuthianum (Antrachnose on bean); conditions: 144 h, inoculation 72 h after spraying, evaluated 6 days after inoculation, read-out: efficacy; for pest or weed control at 500 ppm: 500 ppm of active ingredient; for pest or weed control at 31 ppm: 31 ppm of active ingredient
Method: (§3) The tested active ingredients were prepared by homogenization in a mixture of acetone/Dimethyl sulfoxide/Tween®, and then diluted with water to obtain the desired active material concentration. The young plants of bean were treated by spraying the active ingredient prepared as described above. Control plants were treated only with an aqueous solution of acetone/Dimethyl sulfoxide/Tween®.
(§4) After 72 hours, the plants were contaminated by spraying the leaves with an aqueous suspension of Colletotrichum lindemuthianum spores. The contaminated bean plants were incubated for 24 hours at 20° C. and at 100% relative humidity and then for 5 days at 20° C. and at 90% relative humidity. The test was evaluated 6 days after the inoculation. 0% means an efficacy which corresponds to that of the control plants while an efficacy of 100% means that no disease was observed.
Compound CMP1 was tested in an in vivo preventive test on Colletotrichum lindemuthianum (Antrachnose on bean) in the same conditions as described in Example F.

[5] = tested on: Peronospora parasitica; test: In vivo preventive test on Peronospora parasitica (Crucifer downy mildew); conditions: Hyaloperonospora parasitica, in Brassica oleracea, 120 h, cabbage, evaluated 5 days after inoculation, read-out: efficacy; for pest or weed control at 31 ppm: 31 ppm of active ingredient; for pest or weed control at 500 ppm: 500 ppm of active ingredient; for pest or weed control at 125 ppm: 125 ppm of active ingredient
Method: as §3, with “cabbage” for “bean”
After 72 hours, the plants were contaminated by spraying the leaves with an aqueous suspension of Peronospora parasitica spores. The contaminated cabbage plants were incubated for 5 days at 20° C. and at 100% relative humidity.
The test was evaluated 5 days after the inoculation. 0% means an efficacy which corresponds to that of the control plants while an efficacy of 100% means that no disease was observed.
Compounds CMP2 and CMP3 were tested in an in vivo preventive test on Peronospora parasitica (Crucifer downy mildew) in the same conditions as described in Example G.

[6] = tested on: Xanthomonas campestris pv. campestris; test: In vivo preventive test on Xanthomonas campestris pv. campestris (black rot on cabbage); conditions: for pest or weed control at 125 ppm: 125 ppm of active ingredient
Method: The tested active ingredients were prepared by homogenization in a mixture of acetone/Dimethyl sulfoxide/Tween®, and then diluted with water to obtain the desired active material concentration.
The young plants of cabbage were treated by spraying the active ingredient prepared as described above. Control plants were treated only with an aqueous solution of acetone/Dimethyl sulfoxide/Tween®.
After 72 hours, the plants were contaminated by spraying the leaves with an aqueous bacteria suspension of Xanthomonas campestris pv. campestris. The contaminated cabbage plants were incubated for 8 or 10 days at 27° C. at 95% relative humidity.
The test was evaluated 8 or 10 days after the inoculation. 0% means an efficacy which corresponds to that of the control plants while an efficacy of 100% means that no disease was observed. […]
Compounds CMP1, CMP2, CMP3 and CMP4 were tested in an in vivo preventive test on Xanthomonas campestris pv. campestris (black rot on cabbage) in the same conditions as described in Example H.

[7] = tested on: Uromyces appendiculatus; test: In vivo preventive test on Uromyces appendiculatus (bean rust); conditions: 240 h, evaluated 10 days after inoculation, read-out: efficacy; for pest or weed control at 125 ppm: 125 ppm of active ingredient; for pest or weed control at 500 ppm: 500 ppm of active ingredient
Method: as §3
as §4, with “Uromyces appendiculatus” for “Colletotrichum lindemuthianum”, “9” for “5”, “70-80%” for “90%”, “10” for “6”
Compounds CMP5 and CMP6 were tested in an in vivo preventive test on Uromyces appendiculatus (bean rust) in the same conditions as described in Example I.

[8] = LogP by HPLC on reversed phase columns (EEC directive 79/831 Annex V.A8); type: physicochemical; conditions: reversed phase HPLC columns
Method: In the above tables, measurement of LogP values was performed according to EEC directive 79/831 Annex V.A8 by HPLC (High Performance Liquid Chromatography) on reversed phase columns with the following methods: • ^[a]
Calibration was done with straight-chain alkan2-ones (with 3 to 16 carbon atoms) with known LogP values (measurement of LogP values using retention times with linear interpolation between successive alkanones). Lambda-max-values were determined using UV-spectra from 200 nm to 400 nm and the peak values of the chromatographic signals.

[9] = tested on: Pseudomonas syringae pv. tomato; test: In vivo preventive test on Pseudomonas syringae pv. tomato (bacterial speck on tomato); conditions: evaluated 5 or 6 days after inoculation, read-out: efficacy; for pest or weed control at 500 ppm: 500 ppm of active ingredient; for pest or weed control at 31 ppm: 31 ppm of active ingredient
Method: as §3, with “tomato” for “bean”
After 72 hours, the plants were contaminated by spraying the leaves with an aqueous bacteria suspension of Pseudomonas syringae pv. tomato. The contaminated tomato plants were incubated for 4 days in saturated atmosphere at 22° C. day/20° C. night—70% HR and then for 1 or 2 days at 22° C. day/20° C. night at 70-80% relative humidity.
The test was evaluated 5 or 6 days after the inoculation. 0% means an efficacy which corresponds to that of the control plants while an efficacy of 100% means that no disease was observed.
Compounds CMP1 and CMP4 were tested in an in vivo preventive test on Pseudomonas syringae pv. tomato (bacterial speck on tomato) in the same conditions as described in Example J.

[10] = 20 ppm of active ingredient, 24 h incubation
[11] = evaluated 8 or 10 days after inoculation, read-out: efficacy
[12] = method [a]: LC-UV, in an acidic range, with 0.1% formic acid in water and acetonitrile as eluent (linear gradient from 10% to 95% acetonitrile)
[13] = 31 ppm of active ingredient, evaluated 8 or 10 days after inoculation, read-out: efficacy
[14] = method [a]: LC-UV, acidic range, 0.1% formic acid in water and acetonitrile as eluent (linear gradient 10% to 95% acetonitrile)

SMILES | chromatographic logP [8, 12] | chromatographic logP ([8]; given in the preparation examples, method not marked) | fold induction at 300 ppm [1] | inhibition at 20 ppm [2, 10] [%] | inhibition at 20 ppm [3] [%] | pest or weed control at 500 ppm [4] [%] | pest or weed control at 31 ppm [5] [%] | pest or weed control at 500 ppm [5] [%] | pest or weed control at 125 ppm [6, 11] [%] | pest or weed control at 125 ppm [7] [%] | pest or weed control at 500 ppm [7] [%] | fold induction at 75 ppm [1] | pest or weed control at 31 ppm [4] [%] | pest or weed control at 125 ppm [5] [%] | pest or weed control at 31 ppm [6, 13] [%] | pest or weed control at 500 ppm [9] [%] | pest or weed control at 31 ppm [9] [%] | chromatographic logP [8, 14] | inhibition at 20 ppm ([2]; 24 h) [%] | pest or weed control at 31 ppm ([6]; read-out: efficacy, 31 ppm of active ingredient, evaluated 8 or 10 days after inoculation) [%]
CCOC(=O)C(Cc1c[nH]c2ccccc12)NC(=O)c1sc(Cl)c(Cl)c1Cl (stereo not drawn) [I.013] | 4.44 |  | > 2 | ≤ 30 | ≤ 30 | 80 to 89 | 80 to 89 | 90 to 100 | 80 to 89 | 70 to 79 | 90 to 100 |  |  |  |  |  |  |  |  | 
N#CCNC(=O)c1sc(Cl)c(Cl)c1Cl [I.025, 3,4,5-trichloro-N-(cyanomethyl)thiophene-2-carboxamide] | 2.64 | 2.59 | > 2 | ≤ 30 | ≤ 30 | 90 to 100 | 80 to 89 | 90 to 100 |  |  |  | > 2 | 90 to 100 | 80 to 89 | 70 to 79 | 80 to 89 |  |  |  | 
COC(=O)C(NC(=O)c1sc(Cl)c(Cl)c1Cl)c1cccs1 (stereo not drawn) [I.124] |  |  | > 2 | ≤ 30 | ≤ 30 |  | 90 to 100 |  |  | 90 to 100 |  | > 2 | 90 to 100 | 90 to 100 |  |  | 80 to 89 | 4.22 |  | 
CNC(=S)SC[C@H](NC(=O)c1sc(Cl)c(Cl)c1Cl)C(=O)OC [I.140] |  |  | > 2 |  | ≤ 30 |  | 90 to 100 |  |  | 90 to 100 |  | > 2 |  | 90 to 100 |  |  | 70 to 79 | 3.52 | ≤ 30 | 90 to 100

The next lines start with results.

chromatographic logP [8, 12] | chromatographic logP ([8]; given in the preparation examples, method not marked) | SMILES | fold induction at 300 ppm [1] | inhibition at 20 ppm [2, 10] [%] | inhibition at 20 ppm [3] [%] | pest or weed control at 500 ppm [4] [%] | pest or weed control at 31 ppm [5] [%] | pest or weed control at 500 ppm [5] [%] | pest or weed control at 125 ppm [6, 11] [%] | pest or weed control at 125 ppm [7] [%] | pest or weed control at 500 ppm [7] [%] | fold induction at 75 ppm [1] | pest or weed control at 31 ppm [4] [%] | pest or weed control at 125 ppm [5] [%] | pest or weed control at 31 ppm [6, 13] [%] | pest or weed control at 500 ppm [9] [%] | pest or weed control at 31 ppm [9] [%] | chromatographic logP [8, 14] | inhibition at 20 ppm ([2]; 24 h) [%] | pest or weed control at 31 ppm ([6]; read-out: efficacy, 31 ppm of active ingredient, evaluated 8 or 10 days after inoculation) [%]
3.83 |  | CCOC(=O)C(COC)NC(=O)c1sc(Cl)c(Cl)c1Cl (stereo not drawn) [I.059] | > 2 | ≤ 30 | ≤ 30 | 90 to 100 | 80 to 89 | 90 to 100 | 70 | 90 to 100 | 90 to 100 | > 2 | 70 to 79 | 70 to 79 | 90 to 100 | 90 to 100 |  |  |  | 
3.72 |  | COC(=O)C(C)N(OC)C(=O)c1sc(Cl)c(Cl)c1Cl (stereo not drawn) [I.109] | > 2 |  |  | 90 to 100 | 90 to 100 | 90 to 100 | 70 to 79 | 90 to 100 | 90 to 100 | > 2 |  | 90 to 100 |  | 80 to 89 |  |  |  | 
2.83 |  | CON(C(=O)c1sc(Cl)c(Cl)c1Cl)C(C)C(=O)O (stereo not drawn) [I.111] | > 2 |  |  | 70 to 79 |  | 90 to 100 | 70 to 79 | 90 to 100 | 90 to 100 |  |  | 80 to 89 |  | 80 to 89 |  |  |  | 
